Results reported in ChEMBL document CHEMBL5726136, “Heterocyclic compounds and methods for their use” (2017).

These compounds were tested against T1, Type-2 angiotensin II receptor (Homo sapiens, UniProt P50052) (assay: Receptor Binding Assay: 120 μL membrane (5 mg protein/well) was incubated with 15 μL of [125I]-CGP42112A and 15 μL of compound at RT for 1.5 hrs.The binding reaction was stopped by rapid filtration through Unifilter GF/C plates (presoaked in 0.3% (v:v) BSA).Plate was washed three times with ice cold wash buffer.The filtration plates were dried at 37° C. overnight.50 μL of scintillation cocktail was added to each well.Radioactivity was determined using MicroBetaTriluxmicroplate scintillation counter.).
T1 sequence (P50052 whole entry): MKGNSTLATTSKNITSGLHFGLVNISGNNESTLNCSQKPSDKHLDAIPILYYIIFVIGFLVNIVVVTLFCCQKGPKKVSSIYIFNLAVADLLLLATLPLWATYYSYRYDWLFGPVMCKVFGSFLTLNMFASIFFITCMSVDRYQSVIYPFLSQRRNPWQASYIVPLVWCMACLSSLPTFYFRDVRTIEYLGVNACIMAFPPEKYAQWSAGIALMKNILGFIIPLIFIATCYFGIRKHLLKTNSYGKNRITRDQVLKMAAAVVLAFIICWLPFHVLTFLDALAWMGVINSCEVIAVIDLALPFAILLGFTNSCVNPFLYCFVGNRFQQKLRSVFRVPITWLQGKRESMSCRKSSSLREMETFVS

IC50 | Compound
354 nM | CC(C)C#CCN(C)[C@H]1CCN(C(=O)C(c2ccccc2)c2ccccc2)[C@H](C(=O)O)C1
228 nM | O=C(O)[C@@H]1C[C@H](OCC#Cc2ccc(F)cc2)CCN1C(=O)C(c1ccccc1)c1ccccc1
76.7 nM | O=C(O)[C@@H]1C[C@H](OCc2ccccc2)CCN1C(=O)C(c1ccccc1)c1ccccc1
153 nM | CC(C)C#CCN(C)[C@@H]1CCN(C(=O)C(c2ccccc2)c2ccccc2)[C@H](C(=O)O)C1
